In this test the test system is patients with metastatic and/or recurrent breast cancer. Nature of the test: Phase III clinical trial of DPPE/doxorubicin versus doxorubicin alone, overall survival. The format is in vivo, human. The protocol: In the treatment of stage I or II breast cancer, the diphenyl compound preferably is used in an amount of about 3 to about 10 mg/kg of patient, administered intravenously over a period of about 30 to about 90 minutes prior to administration of the chemotherapeutic agent(s) and continuing for the period of administration of the chemotherapeutic agent(s). In the specific Phase III clinical trial described herein conducted on patients with metastatic and/or recurrent breast cancer, there was employed 5.3 mg/kg of DPPE in the form of the base (equivalent to 6 mg/kg of DPPE in the form of its hydrochloride), administered intravenously as an aqueous solution thereof over 80 minutes, with the last twenty minutes being accompanied by infusion of the specific chemotherapeutic agent.
The chemotherapy agent active in breast cancer which is employed herein preferably is used in a total amount of about 50 to about 75 mg/M^2 of patient for doxorubicin or epirubicin, about 175 to about 225 mg/M^2 for Taxol and about 75 to about 100 mg/M^2 for Taxotere. In the specific Phase III clinical trial described herein conducted on patients with metastatic and/or recurrent breast cancer, there was employed 60 mg/M^2 of doxorubicin administered over the last 20 minutes of infusion of the DPPE solution.
Patients were treated with doxorubicin (DOX) alone or a combination of doxorubicin and DPPE. […]
The survival time for patients was determined for those patients with metastatic breast cancer receiving no prior chemotherapy treatment in relation to those who had received prior chemotherapy treatment, and for patients that had received no previous treatment type (namely, chemotherapy, radiotherapy and/or hormone treatment) and those who had received previous treatment. The survival times were determined for patients receiving the DPPE/DOX combination and DOX alone.

Consider one molecule from patent US20060142287A1, “Use of a combination of dppe with other chemotherapeutic agents for the treatment of breast cancer” (priority 2002, published 2006).

Structures are written as SMILES.

For the molecule `COc1cccc2c1C(=O)c1c(O)c3c(c(O)c1C2=O)C[C@@](O)(C(=O)CO)C[C@@H]3O[C@H]1C[C@H](N)[C@H](O)[C@H](C)O1` [DOX, doxorubicin], the median overall survival came to 9.3 months (patients with metastatic disease who had estrogen receptor-negative tumors, FIG. 3); 16.2 months (patients with metastatic disease who had no previous chemotherapy, DPPE 5.3 mg/kg iv over 80 min, doxorubicin 60 mg/M^2 over last 20 min, FIG. 1); 15 months (patients with metastatic disease who had no previous treatment (chemotherapy, radiotherapy and/or hormone treatment), FIG. 2).
